Laboratory results reported in patent publication US11534457B2, “Use of dextran sulfate” (priority 2017, dated 2022).
“Also recorded” adds a separate entry of the source.

Experiments:
[1] = tested on: Experimental Autoimmune Encephalomyelitis (EAE); experiment: Mouse Experimental Autoimmune Encephalomyelitis (EAE) model, clinical score; type: in vivo, C57B1.6 mice; details: 10 mg/kg s.c. three times weekly from day 0; day 13, 14, 16, 17, 19, 21 and 26
[2] = tested on: closed-head diffuse severe TBI (sTBI); experiment: sTBI in rats, dose study, HPLC of energy metabolites, antioxidants, oxidative/nitrosative stress biomarkers, NAA (Example 7); type: in vivo, Male Wistar rats
Method: Male Wistar rats (n=160) of 300-350 g body weight were used in this study. They were fed with standard laboratory diet and water ad libitum in a controlled environment.
As the accepted anesthetic mixture, animals received 35 mg/kg b.w. ketamine and 0.25 mg/kg body weight midazolam by intramuscular injection. Diffuse sTBI was induced according to the “weight drop” impact acceleration model set up by Marmarou et al. J. Neurosurg. 1994, 80: 291-300. This model causes diffuse axonal injury and it is able to reproduce the physical and mechanical characteristics of the diffuse TBI in humans.
Severe TBI was induced by dropping a 450 g weight from 2 meters height onto the rat head protected by a helmet (metal disk previously fixed on the skull using dental cement) in order to uniformly distribute the mechanical force to the brain. Rats were placed prone on a bed of specific polyurethane foam inserted in a special container; this foam dissipates the major part of the potential energy (deriving from the mechanical forces) and prevents any rebound of the animal after the impact that could produce spinal damages.
After 2 or 7 days from TBI induction, rats were anesthetized again and then immediately sacrificed. These time points are coincident with the worst biochemical derangement (2 days) or, in the case of a mildly injured brain, with a full metabolic recovery (7 days).
The drug treatment consisted in a subcutaneous injection of 0.5 ml of LMW-DS (Tikomed) and administered at 3 different concentrations (1, 5 and 15 mg/kg body weight), according to the schematic protocol described below.
(§1) Rats subjected to sTBI and receiving a single administration of LMW-DS after 30 minutes post-TBI, with sacrifice at 2 days post-TBI. Animals were divided in the following subgroups: • 1. 12 animals subjected to sTBI and treated with 1 mg/kg b.w. LMW-DS • 2. 12 animals subjected to sTBI and treated with 5 mg/kg b.w. LMW-DS • 3. 12 animals subjected to sTBI and treated with 15 mg/kg b.w. LMW-DS
as §1, with “at 7” for “at 2”
Rats (n=12) subjected to sTBI and receiving repeated administrations of the maximal dose of LMW-DS (15 mg/kg b.w.) after 30 minutes, 3 days and 5 days post-TBI, with sacrifice at 7 days post-TBI. Four additional rats were used for the histo-morphological studies. Total rats in this group: n=16
To minimize metabolite loss, an in vivo craniectomy was performed in all animals during anesthesia. The rat skull was carefully removed, the brain was exposed, sharply cut along the sagittal fissure and the two hemispheres were separated. The hemispheres dedicated to biochemical analyses were freeze-clamped by aluminum tongues pre-cooled in liquid nitrogen and then immersed in liquid nitrogen. The freeze-clamping procedure was introduced to accelerate freezing of the tissue, thus minimizing potential metabolite loss.
Tissue homogenization for metabolite analyses was effected as described below. After the wet weight (w.w.) determination, the frozen hemispheres were placed into 7 ml of ice-cold, nitrogen-saturated, precipitating solution (1:10 w/v) composed by CH3CN+10 mM KH2PO4, pH 7.40, (3:1; v:v), and the homogenization was performed using an Ultra-Turrax homogenizer set at 24,000 rpm/min (Janke & Kunkel, Staufen, Germany). After centrifugation at 20,690×g, for 10 min at 4° C., the clear supernatants were saved, pellets were supplemented with an aliquot of 10 mM KH2PO4 and homogenized again as described above and saved overnight at −20° C. in order to obtain a complete recovery of aqueous phase from tissue. […]

[3] = 1 mg/kg s.c. single, 30 min post-sTBI, sacrifice 2 days
[4] = 15 mg/kg s.c. single, 30 min post-sTBI, sacrifice 2 days
[5] = 2 days post sTBI, 5 or 15 mg/kg b.w.
[6] = rats, 7 days post-sTBI, single administration of 15 mg/kg b.w.

low molecular weight dextran sulfate [LMW-DS]
mean EAE score vs vehicle control [1]: significantly (#) lower mean score; also recorded: significantly lower mean score
CDP choline, brain concentration [2, 3]: 8.23 ± 1.22 nmol/g w.w.
GDP Glucose, brain concentration [2, 3]: 65.66 ± 41.61 nmol/g w.w.
UDP-Glc, brain concentration [2, 3]: 45.14 ± 6.68 nmol/g w.w.
UDP-GlcNac, brain concentration [2, 3]: 96.62 ± 8.80 nmol/g w.w.
NAD^+/NADH ratio, brain ([2]; 1 mg/kg s.c. single, 30 min post-sTBI, sacrifice 2 days, adimensional): 33.91 ± 9.32
NAD^+/ADH, brain ([2]; 1 mg/kg s.c. single, 30 min post-sTBI, sacrifice 7 days): 33.91 ± 9.32
GDP Glucose, brain concentration ([2]; 5 mg/kg s.c. single, 30 min post-sTBI, sacrifice 2 days): 83.81 ± 37.35 nmol/g w.w.
CYTIDINE, brain concentration [2, 4]: 11.46 ± 2.07 nmol/g w.w.
GDP Glucose, brain concentration [2, 4]: 84.24 ± 37.54 nmol/g w.w.
UDP-Glc, brain concentration [2, 4]: 43.41 ± 06.43 nmol/g w.w.
β-PSEUDOURIDINE, brain concentration [2, 4]: 7.84 ± 1.57 nmol/g w.w.
ascorbic acid and reduced glutathione (GSH) ([2]; 2 days post sTBI): significantly ameliorated
cerebral tissue nitrites and nitrates ([2]; 2 days post sTBI): evident decrease
concentrations of UTP and ADP ([2]; 2 days post sTBI): No effects
de-phosphorylated purines and pyrimidines ([2]; 2 days post sTBI): positively affected
nicotinic coenzyme pool and NAD/NADH ratio ([2]; 2 days post sTBI, 15 mg/kg b.w.): effective only at the maximal dose tested
Acetyl-CoA [2, 5]: partial rescue
whole brain NAA [2, 5]: significantly higher than values found in sTBI rats
high energy phosphates (ATP, GTP, and CTP) vs sTBI ([2]; 2 days post sTBI, all three dosages (1, 5, 15 mg/kg)): Significantly higher values
ATP level, lower than the value of controls ([2]; 7 days post impact (untreated sTBI 35%)): 16%
NAA concentration, lower than the value of controls ([2]; 7 days post impact (untreated sTBI 48%)): 16%
de-phosphorylated purines and pyrimidines ([2]; 7 days post sTBI): positively affected
CoA-SH and Acetyl-CoA ([2]; 7 days post sTBI, 5 or 15 mg/kg b.w. (single and repeat)): Remarkable positive effects
ATP ([2]; 7 days post sTBI, any dose tested): significant increases
concentrations of nicotinic coenzymes ([2]; 7 days post sTBI, excluding the lowest dose): significant improvement
ascorbic acid and GSH, with decrease of nitrites and nitrates ([2]; 7 days post sTBI, highest single and repeat dose): particularly beneficial
ATP/ADP ratio ([2]; 7 days post sTBI, increasing dose): progressively increased
whole brain NAA ([2]; 7 days post sTBI, increasing single doses or repeat maximal dose): dose dependent increase
cerebral energy metabolism ([2]; 7 days post sTBI, more evident above 1 mg/kg b.w.): general improvement
NAD+ level and NAD/NADH ratio ([2]; 7 days post sTBI, single and repeat 15 mg/kg b.w.): able to normalize NAD+ level and to restore the correct NAD/NADH ratio
ADENOSINE concentration in deproteinized brain homogenates ([2]; rats, 7 days post-sTBI, repeated administration of 15 mg/kg b.w.): 40.84 ± 30.25 nmol/g w.w.
GMP concentration in deproteinized brain homogenates ([2]; rats, 7 days post-sTBI, single administration of 1 mg/kg b.w.): 113.06 ± 53.51 nmol/g w.w.
ADENOSINE concentration in deproteinized brain homogenates [2, 6]: 55.95 ± 41.44 nmol/g w.w.
CDP choline concentration in deproteinized brain homogenates [2, 6]: 10.06 ± 3.23 nmol/g w.w.
